From patent US12509446B2, “FYN and VEGFR2 kinase inhibitors” (ROTTAPHARM BIOTECH S.R.L., priority 2019, dated 2025)
Read-outs that look alike come from different tables or passages of the source.

Legend:
Fyn = Fyn (Homo sapiens (Human), UniProt P06241); assay: Z′-LYTE in vitro Fyn kinase activity assay; type: biochemical; conditions: ATP 50 μM; read-out: FYN KINASE INHIBITION IC50
Method in brief: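 Z′-LYTE FRET format with full-length active Fyn in 50 mM Hepes pH 7.5, 10 mM MgCl2, 1 mM EGTA, 0.01% Brij-35, 1% DMSO final; 60 minutes at 25° C. Percent phosphorylation from 0% and 100% phosphorylation controls; IC50 by non-linear curve fitting of percent inhibition.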

CDK2 = CDK2 (Homo sapiens (Human), UniProt P24941); assay: Kinase selectivity (Eurofins Cerep), CDK2; type: biochemical; conditions: maximal concentration tested 10 μM
Method: (§1) The assays were performed in Eurofins Cerep (France). The concentration range of the compound under investigation was from 10^−9 M up to 10^−5 M final concentration.

VEGFR2 [1] = molecular target: T1, VEGFR2 (Homo sapiens (Human), UniProt P35968); assay: In vitro VEGFR2 kinase activity assay (Eurofins Cerep); type: biochemical; conditions: read-out: VEGFR2 KINASE INHIBITION IC50
Method in brief: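 Contract biochemical kinase assay on human VEGFR2 with inhibitors at 10^−8 to 10^−5 M final (some re-tested from 10^−9 M). Activity expressed as percent of no-compound control; IC50 by non-linear regression of mean replicate inhibition curves.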

ADAMTS-5 = assay: Gene expression in rat articular chondrocytes under IL-1β stimulation, ADAMTS-5; type: cell-based; conditions: Rattus norvegicus, Chondrocyte; 6 h incubation
Method in brief: (§2)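 Primary rat chondrocytes were synchronized in DMEM GlutaMAX I 0.4% 10 days after plating, then co-treated with test compounds (top concentration set by toxicity) and cytokine at 2 ng/ml. TaqMan RT-qPCR relative to 18S was read at 6 h for IL-1β and ADAMTS-5 and at 24 h for MMP3 and MMP13.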

MMP3 = assay: Gene expression in rat articular chondrocytes under IL-1β stimulation, MMP3; type: cell-based; conditions: Rattus norvegicus, Chondrocyte; 24 h incubation
Method in brief: as §2

AurA = AurA (Homo sapiens (Human), UniProt O14965); assay: Kinase selectivity (Eurofins Cerep), AurA; type: biochemical; conditions: maximal concentration tested 10 μM
Method: as §1

NF-kB = assay: Gene reporter (GR) assay, NF-kB activation after TNFα in JB6 Cl 41-5a (P+) cells; type: cell-based, murine; conditions: TNFα 2 ng/ml, non toxic concentrations, read-out: Gene reporter (GR) inhibition IC50
Method in brief: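 TNFα (2 ng/ml, 4 h) stimulation followed 1 h compound pre-treatment in NF-kB-luciferase-transfected mouse JB6 (P+) epithelial cells. Reporter luminescence and cell viability were read together, each condition in quadruplicate.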

VEGFR2 [2] = molecular target: T1, VEGFR2; assay: ADP-Glo kinase assay at high ATP concentration (0.5 mM), VEGFR2; type: biochemical; conditions: ATP 0.5 mM; read-out: VEGFR2 IC50 in the presence of high ATP concentration
Method: The inhibition of Fyn and VEGFR2 kinase activity was evaluated in the presence of a fixed ATP concentration (0.5 mM), near to the millimolar range present in cells. The assay was performed by The ADP-Glo™ Kinase Assay (Promega), monitoring ADP produced in the kinase reaction. Kinase reaction was performed in 10 μl, according to supplier indication, in a white 384-well plate.
Inhibitor solutions in DMSO/Kinase buffer and the kinase (Fyn 2.5 ng/μl and VEGFR2 0.5 ng/μl final concentration in assay) were pre-incubate 15 minutes at room temperature. The range of inhibitor concentrations was from 10^−10 M up to 10^−5 M (final concentration in assay). To start the reaction, a substrate/ATP mix (0.5 mM final concentration, corresponding to 10× ATP KM value) was added to each sample. After 60 minutes incubation at room temperature, ADP-Glo™ Reagent and Kinase Detection Reagent, added and incubated in sequence according to supplier indication, allowed to stop and develop the kinase reaction. The percentage of inhibition, calculated towards the enzymatic activity in the absence of test compound, and the corresponding inhibition curves were analyzed by non-linear curve fitting (GraphPad software, version 7 for Windows), allowing to calculate the IC50 value.

[3] = system: rat primary articular chondrocytes; assay: Toxicity analysis (MTT) in rat primary chondrocytes
[4] = Pharmacokinetics, systemic routes, rats; type: in vivo

T1 sequence (P35968 20-1356): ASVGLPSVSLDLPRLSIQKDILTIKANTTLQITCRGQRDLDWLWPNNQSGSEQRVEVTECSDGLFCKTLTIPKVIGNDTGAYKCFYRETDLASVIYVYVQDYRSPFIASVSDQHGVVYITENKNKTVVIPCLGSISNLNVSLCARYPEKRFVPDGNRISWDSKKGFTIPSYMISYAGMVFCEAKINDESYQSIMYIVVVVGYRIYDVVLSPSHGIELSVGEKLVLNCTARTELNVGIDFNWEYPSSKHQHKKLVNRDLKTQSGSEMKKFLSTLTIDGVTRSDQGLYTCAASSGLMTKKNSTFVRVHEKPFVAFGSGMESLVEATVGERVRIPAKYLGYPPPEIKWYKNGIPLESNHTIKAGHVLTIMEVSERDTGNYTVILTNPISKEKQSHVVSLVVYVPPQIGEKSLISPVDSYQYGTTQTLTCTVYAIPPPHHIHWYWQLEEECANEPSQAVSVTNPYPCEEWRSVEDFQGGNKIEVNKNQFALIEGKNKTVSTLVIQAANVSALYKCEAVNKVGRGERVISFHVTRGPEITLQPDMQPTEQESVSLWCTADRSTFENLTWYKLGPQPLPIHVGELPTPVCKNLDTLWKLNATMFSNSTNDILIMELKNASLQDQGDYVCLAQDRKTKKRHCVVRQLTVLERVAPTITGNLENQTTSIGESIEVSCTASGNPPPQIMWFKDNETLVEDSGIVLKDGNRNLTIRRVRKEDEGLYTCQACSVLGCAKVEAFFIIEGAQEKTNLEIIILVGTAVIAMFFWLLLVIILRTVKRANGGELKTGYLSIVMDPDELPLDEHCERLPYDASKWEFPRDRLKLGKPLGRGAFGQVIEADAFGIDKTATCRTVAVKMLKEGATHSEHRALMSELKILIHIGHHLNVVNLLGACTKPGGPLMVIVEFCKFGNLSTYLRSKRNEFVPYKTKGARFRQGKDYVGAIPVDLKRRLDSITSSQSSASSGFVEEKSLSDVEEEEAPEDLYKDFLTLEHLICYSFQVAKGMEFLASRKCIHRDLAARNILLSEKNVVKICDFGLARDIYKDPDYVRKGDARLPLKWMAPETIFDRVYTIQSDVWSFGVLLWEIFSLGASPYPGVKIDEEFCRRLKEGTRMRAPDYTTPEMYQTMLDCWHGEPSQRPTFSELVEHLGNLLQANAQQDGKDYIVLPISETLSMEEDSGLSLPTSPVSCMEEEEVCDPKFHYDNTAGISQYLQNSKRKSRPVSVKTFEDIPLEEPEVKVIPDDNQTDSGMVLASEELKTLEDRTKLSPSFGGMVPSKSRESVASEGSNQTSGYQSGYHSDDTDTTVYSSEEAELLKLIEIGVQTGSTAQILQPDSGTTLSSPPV
Sequence of AurA (O14965 whole entry): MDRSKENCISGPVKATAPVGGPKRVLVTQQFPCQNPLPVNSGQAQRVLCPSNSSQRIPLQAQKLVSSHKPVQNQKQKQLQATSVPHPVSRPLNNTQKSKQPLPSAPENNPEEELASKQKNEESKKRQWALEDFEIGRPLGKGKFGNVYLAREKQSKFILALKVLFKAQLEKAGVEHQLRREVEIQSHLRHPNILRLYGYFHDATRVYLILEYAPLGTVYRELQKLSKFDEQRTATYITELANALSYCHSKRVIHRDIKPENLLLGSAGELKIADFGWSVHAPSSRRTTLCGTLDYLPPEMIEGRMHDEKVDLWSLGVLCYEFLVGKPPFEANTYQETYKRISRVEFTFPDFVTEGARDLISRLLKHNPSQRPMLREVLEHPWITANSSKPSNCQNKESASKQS
Sequence of Fyn (P06241 whole entry): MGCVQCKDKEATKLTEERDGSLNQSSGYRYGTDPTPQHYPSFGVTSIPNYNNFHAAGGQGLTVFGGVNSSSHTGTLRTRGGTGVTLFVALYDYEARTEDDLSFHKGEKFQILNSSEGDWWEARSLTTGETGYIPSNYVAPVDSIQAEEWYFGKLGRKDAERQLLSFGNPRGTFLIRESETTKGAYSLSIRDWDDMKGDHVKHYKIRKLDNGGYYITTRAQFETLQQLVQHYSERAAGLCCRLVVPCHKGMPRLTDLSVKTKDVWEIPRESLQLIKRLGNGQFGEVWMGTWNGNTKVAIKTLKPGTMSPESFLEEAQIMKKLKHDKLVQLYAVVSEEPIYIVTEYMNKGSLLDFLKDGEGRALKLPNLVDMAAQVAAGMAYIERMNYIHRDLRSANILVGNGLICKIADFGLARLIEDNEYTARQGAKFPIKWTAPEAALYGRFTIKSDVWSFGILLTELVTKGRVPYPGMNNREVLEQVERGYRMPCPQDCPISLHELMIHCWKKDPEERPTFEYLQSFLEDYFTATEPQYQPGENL

For Cc1ccc(NC(=O)c2cccc(C(F)(F)F)c2)cc1CCc1cc(Nc2cnccn2)[nH]n1 [Compound 3, N-(4-methyl-3-(2-(5-(pyrazin-2-ylamino)-1H-pyrazol-3-yl)ethyl)phenyl)-3-(trifluoromethyl)benzamide], the IC50 (Fyn) was 9 nM, the IC50 (CDK2) was > 10000 nM and the IC50 (VEGFR2 [1]) was 7 nM. The IC50 (ADAMTS-5) was 34 nM, the IC50 (MMP3) was 323 nM and the IC50 (AurA) was > 10000 nM. For the same molecule, the IC50 (NF-kB; Mus musculus, JB6 Cl 41-5a) was < 250 nM, the IC50 (NF-kB) was 236 nM and the IC50 (VEGFR2 [2]) was 58 nM. The “First toxic concentration at 48 h in rat primary chondrocytes” value ([3]; 48 h) was 3 µM, the “First toxic concentration at 24 h” value ([3]; rat primary chondrocytes, 24 h) was 10 µM and the Metabolism in rats [4] was “lack of important metabolism”. The bioavailability ([4]; rat, in vivo, oral route, read-out: Absolute bioavailability) was ~6%.
